Experimental data: ChEMBL document CHEMBL1131037, “Structure-based design, synthesis, and biological evaluation of irreversible human rhinovirus 3C protease inhibitors. 2. Peptide structure-activity studies” (J Med Chem, 1998)
pEC50: −log10 of the molar value.

The compounds below were run on rhinovirus B14 (assay: Antiviral activity against HRV-14 in cell culture). Details: Rhinovirus B.
Type: functional, organism-based

| Structure (SMILES) | pEC50 |
| --- | --- |
| CCOC(=O)/C=C/[C@H](CCS(C)(=O)=O)NC(=O)[C@H](Cc1ccccc1)NC(=O)[C@H](CC(C)C)NC(=O)OCc1ccccc1 | < 4.00 |
| CCOC(=O)/C=C/[C@H](CCC(N)=O)NC(=O)[C@H](Cc1ccccc1)NC(=O)[C@@H](NC(=O)OCc1ccccc1)C1CCCCC1 | 6.00 |
| CCOC(=O)/C=C/[C@H](CCC(C)=O)NC(=O)[C@H](Cc1ccccc1)NC(=O)[C@H](CC(C)C)NC(=O)OCc1ccccc1 | 5.80 |
| CCOC(=O)/C=C/[C@H](CCC(=O)N(C)C)NC(=O)[C@H](Cc1ccccc1)NC(=O)[C@H](CC(C)C)NC(=O)OCc1ccccc1 | 5.40 |
| CCOC(=O)/C=C/[C@H](CCC(N)=O)NC(=O)[C@H](Cc1ccc(OCC)cc1)NC(=O)[C@H](CC(C)C)NC(=O)OCc1ccccc1 | < 3.49 |
| CCOC(=O)/C=C/[C@H](CCC(N)=O)NC(=O)[C@H](Cc1ccccc1)NC(=O)[C@@H](NC(=O)OCc1ccccc1)C(C)(C)O | 6.18 |
| CCOC(=O)/C=C/[C@H](CCC(N)=O)NC(=O)[C@H](Cc1ccccc1)NC(=O)[C@@H](NC(=O)OCc1ccccc1)[C@H](C)SC(C)C | 5.00 |
| CCOC(=O)/C=C/[C@H](CCC(N)=O)NC(=O)[C@H](Cc1ccccc1)NC(=O)[C@H](CC(C)C)NC(=O)[C@H](C)NC(C)=O | 4.70 |
| CCOC(=O)/C=C/[C@H](CCC(N)=O)NC(=O)[C@H](Cc1ccccc1)NC(=O)[C@H](CC(C)C)NC(=O)CCO | 4.72 |
| CCOC(=O)/C=C/[C@H](CCC(N)=O)NC(=O)[C@H](Cc1ccc(O)cc1)NC(=O)[C@H](CC(C)C)NC(=O)OCc1ccccc1 | 5.28 |
| CCOC(=O)/C=C/[C@H](CCC(C)O)NC(=O)[C@H](Cc1ccccc1)NC(=O)[C@H](CC(C)C)NC(=O)OCc1ccccc1 (some centres undefined) | < 4.00 |
| CCOC(=O)/C=C/[C@H](CCC(N)=O)NC(=O)[C@H](Cc1ccccc1)NC(=O)[C@H](C)NC(=O)OCc1ccccc1 | 5.70 |
| CCOC(=O)/C=C/[C@H](CCC(N)=O)NC(=O)[C@H](Cc1ccccc1)NC(=O)[C@H](CC(C)C)NC(=O)c1ccc2ccccc2c1 | 6.00 |
| CCOC(=O)/C=C/[C@H](CCC(N)=O)NC(=O)[C@H](Cc1ccccc1)NC(=O)[C@H](Cc1ccccc1)NC(=O)OCc1ccccc1 | 6.25 |
| CCOC(=O)/C=C/[C@H](CCC(N)=O)NC(=O)[C@H](Cc1ccccc1)NC(=O)[C@H](CSc1ccccc1)NC(=O)OCc1ccccc1 | 6.92 |
| CCOC(=O)/C=C/[C@H](CCC(N)=O)NC(=O)[C@H](Cc1ccc(COC)cc1)NC(=O)[C@H](CC(C)C)NC(=O)OCc1ccccc1 | 4.41 |
| CCOC(=O)/C=C/[C@H](CCC(N)=O)NC(=O)[C@H](Cc1ncc[nH]1)NC(=O)[C@H](CC(C)C)NC(=O)OCc1ccccc1 | 4.57 |
| CCOC(=O)/C=C/[C@H](CCC(N)=O)NC(=O)[C@H](Cc1ccccc1)NC(=O)[C@H](CC(C)C)NC(=O)OCc1ccccc1C | 6.00 |
| CCOC(=O)/C=C/[C@H](CCC(=O)NC)NC(=O)[C@H](Cc1ccccc1)NC(=O)[C@H](CC(C)C)NC(=O)OCc1ccccc1 | 5.25 |
| CCOC(=O)/C=C/[C@H](CCC(N)=O)NC(=O)[C@H](Cc1ccccc1)NC(=O)[C@H](CCCN1CCOCC1)NC(=O)OCc1ccccc1 | 5.15 |
| CCOC(=O)/C=C/[C@H](CCC(N)=O)NC(=O)[C@H](Cc1ccccc1)NC(=O)[C@H](CC(C)C)NC(C)=O | 4.85 |
| CCOC(=O)/C=C/[C@H](CCC(N)=O)NC(=O)[C@H](Cc1ccccc1)NC(=O)[C@@H](NC(=O)OCc1ccccc1)[C@H](C)O | 5.74 |
| CCOC(=O)/C=C/[C@H](CCC(N)=O)NC(=O)OCc1ccccc1 | < 4.00 |

The compounds below were run against T1, Human rhinovirus A protease (Human rhinovirus sp.) (UniProt Q4U254) (assay: Binding affinity on human Rhinovirus 3C protease (rhinovirus serotype 14)). Details: not given.
T1 sequence (whole entry): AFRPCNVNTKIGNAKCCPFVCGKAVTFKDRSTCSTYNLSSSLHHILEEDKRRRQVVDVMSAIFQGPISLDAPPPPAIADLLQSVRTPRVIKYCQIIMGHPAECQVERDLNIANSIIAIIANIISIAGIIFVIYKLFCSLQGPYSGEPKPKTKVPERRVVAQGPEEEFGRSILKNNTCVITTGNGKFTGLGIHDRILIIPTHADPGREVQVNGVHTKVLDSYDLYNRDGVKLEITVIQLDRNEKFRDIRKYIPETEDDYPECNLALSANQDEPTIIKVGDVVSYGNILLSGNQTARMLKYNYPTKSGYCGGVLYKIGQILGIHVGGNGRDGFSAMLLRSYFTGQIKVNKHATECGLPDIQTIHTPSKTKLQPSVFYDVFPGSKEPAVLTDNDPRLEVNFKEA

| Structure (SMILES) | K obs / 1 |
| --- | --- |
| CCOC(=O)/C=C/[C@H](CCS(C)(=O)=O)NC(=O)[C@H](Cc1ccccc1)NC(=O)[C@H](CC(C)C)NC(=O)OCc1ccccc1 | 60 M⁻¹ s⁻¹ |
| CCOC(=O)/C=C/[C@H](CCC(N)=O)NC(=O)[C@H](Cc1ccccc1)NC(=O)[C@@H](NC(=O)OCc1ccccc1)C1CCCCC1 | 36200 M⁻¹ s⁻¹ |
| CCOC(=O)/C=C/[C@H](CCC(C)=O)NC(=O)[C@H](Cc1ccccc1)NC(=O)[C@H](CC(C)C)NC(=O)OCc1ccccc1 | 1400 M⁻¹ s⁻¹ |
| CCOC(=O)/C=C/[C@H](CCC(=O)N(C)C)NC(=O)[C@H](Cc1ccccc1)NC(=O)[C@H](CC(C)C)NC(=O)OCc1ccccc1 | 60 M⁻¹ s⁻¹ |
| CCOC(=O)/C=C/[C@H](CCC(N)=O)NC(=O)[C@H](Cc1ccc(OCC)cc1)NC(=O)[C@H](CC(C)C)NC(=O)OCc1ccccc1 | 4200 M⁻¹ s⁻¹ |
| CCOC(=O)/C=C/[C@H](CCC(N)=O)NC(=O)[C@H](Cc1ccccc1)NC(=O)[C@@H](NC(=O)OCc1ccccc1)C(C)(C)O | 98000 M⁻¹ s⁻¹ |
| CCOC(=O)/C=C/[C@H](CCC(N)=O)NC(=O)[C@H](Cc1ccccc1)NC(=O)[C@@H](NC(=O)OCc1ccccc1)[C@H](C)SC(C)C | 40000 M⁻¹ s⁻¹ |
| CCOC(=O)/C=C/[C@H](CCC(N)=O)NC(=O)[C@H](Cc1ccccc1)NC(=O)[C@H](CC(C)C)NC(=O)[C@H](C)NC(C)=O | 43400 M⁻¹ s⁻¹ |
| CCOC(=O)/C=C/[C@H](CCC(N)=O)NC(=O)[C@H](Cc1ccccc1)NC(=O)[C@H](CC(C)C)NC(=O)CCO | 4500 M⁻¹ s⁻¹ |
| CCOC(=O)/C=C/[C@H](CCC(N)=O)NC(=O)[C@H](Cc1ccc(O)cc1)NC(=O)[C@H](CC(C)C)NC(=O)OCc1ccccc1 | 11300 M⁻¹ s⁻¹ |
| CCOC(=O)/C=C/[C@H](CCC(C)O)NC(=O)[C@H](Cc1ccccc1)NC(=O)[C@H](CC(C)C)NC(=O)OCc1ccccc1 (some centres undefined) | 0 M⁻¹ s⁻¹ |
| CCOC(=O)/C=C/[C@H](CCC(N)=O)NC(=O)[C@H](Cc1ccccc1)NC(=O)[C@H](C)NC(=O)OCc1ccccc1 | 11300 M⁻¹ s⁻¹ |
| CCOC(=O)/C=C/[C@H](CCC(N)=O)NC(=O)[C@H](Cc1ccccc1)NC(=O)[C@H](CC(C)C)NC(=O)c1ccc2ccccc2c1 | 21000 M⁻¹ s⁻¹ |
| CCOC(=O)/C=C/[C@H](CCC(N)=O)NC(=O)[C@H](Cc1ccccc1)NC(=O)[C@H](Cc1ccccc1)NC(=O)OCc1ccccc1 | 162000 M⁻¹ s⁻¹ |
| CCOC(=O)/C=C/[C@H](CCC(N)=O)NC(=O)[C@H](Cc1ccccc1)NC(=O)[C@H](CSc1ccccc1)NC(=O)OCc1ccccc1 | 141000 M⁻¹ s⁻¹ |
| CCOC(=O)/C=C/[C@H](CCC(N)=O)NC(=O)[C@H](Cc1ccc(COC)cc1)NC(=O)[C@H](CC(C)C)NC(=O)OCc1ccccc1 | 7100 M⁻¹ s⁻¹ |
| CCOC(=O)/C=C/[C@H](CCC(N)=O)NC(=O)[C@H](Cc1ncc[nH]1)NC(=O)[C@H](CC(C)C)NC(=O)OCc1ccccc1 | 6800 M⁻¹ s⁻¹ |
| CCOC(=O)/C=C/[C@H](CCC(N)=O)NC(=O)[C@H](Cc1ccccc1)NC(=O)[C@H](CC(C)C)NC(=O)OCc1ccccc1C | 41800 M⁻¹ s⁻¹ |
| CCOC(=O)/C=C/[C@H](CCC(=O)NC)NC(=O)[C@H](Cc1ccccc1)NC(=O)[C@H](CC(C)C)NC(=O)OCc1ccccc1 | 750 M⁻¹ s⁻¹ |
| CCOC(=O)/C=C/[C@H](CCC(N)=O)NC(=O)[C@H](Cc1ccccc1)NC(=O)[C@H](CCCN1CCOCC1)NC(=O)OCc1ccccc1 | 43300 M⁻¹ s⁻¹ |
| CCOC(=O)/C=C/[C@H](CCC(N)=O)NC(=O)[C@H](Cc1ccccc1)NC(=O)[C@H](CC(C)C)NC(C)=O | 3700 M⁻¹ s⁻¹ |
| CCOC(=O)/C=C/[C@H](CCC(N)=O)NC(=O)[C@H](Cc1ccccc1)NC(=O)[C@@H](NC(=O)OCc1ccccc1)[C@H](C)O | 38900 M⁻¹ s⁻¹ |
| CCOC(=O)/C=C/[C@H](CCC(N)=O)NC(=O)OCc1ccccc1 | 4.5 M⁻¹ s⁻¹ |

The compounds below were run on rhinovirus B14 (assay: Cytotoxic activity against HRV-14 in cell culture). Details: Rhinovirus B.
Type: functional, rhinovirus 14

| Structure (SMILES) | CC50 |
| --- | --- |
| CCOC(=O)/C=C/[C@H](CCS(C)(=O)=O)NC(=O)[C@H](Cc1ccccc1)NC(=O)[C@H](CC(C)C)NC(=O)OCc1ccccc1 | > 100 µM |
| CCOC(=O)/C=C/[C@H](CCC(N)=O)NC(=O)[C@H](Cc1ccccc1)NC(=O)[C@@H](NC(=O)OCc1ccccc1)C1CCCCC1 | > 100 µM |
| CCOC(=O)/C=C/[C@H](CCC(C)=O)NC(=O)[C@H](Cc1ccccc1)NC(=O)[C@H](CC(C)C)NC(=O)OCc1ccccc1 | > 100 µM |
| CCOC(=O)/C=C/[C@H](CCC(=O)N(C)C)NC(=O)[C@H](Cc1ccccc1)NC(=O)[C@H](CC(C)C)NC(=O)OCc1ccccc1 | > 100 µM |
| CCOC(=O)/C=C/[C@H](CCC(N)=O)NC(=O)[C@H](Cc1ccc(OCC)cc1)NC(=O)[C@H](CC(C)C)NC(=O)OCc1ccccc1 | > 320 µM |
| CCOC(=O)/C=C/[C@H](CCC(N)=O)NC(=O)[C@H](Cc1ccccc1)NC(=O)[C@@H](NC(=O)OCc1ccccc1)C(C)(C)O | > 100 µM |
| CCOC(=O)/C=C/[C@H](CCC(N)=O)NC(=O)[C@H](Cc1ccccc1)NC(=O)[C@@H](NC(=O)OCc1ccccc1)[C@H](C)SC(C)C | > 100 µM |
| CCOC(=O)/C=C/[C@H](CCC(N)=O)NC(=O)[C@H](Cc1ccccc1)NC(=O)[C@H](CC(C)C)NC(=O)[C@H](C)NC(C)=O | > 100 µM |
| CCOC(=O)/C=C/[C@H](CCC(N)=O)NC(=O)[C@H](Cc1ccccc1)NC(=O)[C@H](CC(C)C)NC(=O)CCO | > 320 µM |
| CCOC(=O)/C=C/[C@H](CCC(N)=O)NC(=O)[C@H](Cc1ccc(O)cc1)NC(=O)[C@H](CC(C)C)NC(=O)OCc1ccccc1 | > 320 µM |
| CCOC(=O)/C=C/[C@H](CCC(C)O)NC(=O)[C@H](Cc1ccccc1)NC(=O)[C@H](CC(C)C)NC(=O)OCc1ccccc1 (some centres undefined) | > 100 µM |
| CCOC(=O)/C=C/[C@H](CCC(N)=O)NC(=O)[C@H](Cc1ccccc1)NC(=O)[C@H](C)NC(=O)OCc1ccccc1 | > 320 µM |
| CCOC(=O)/C=C/[C@H](CCC(N)=O)NC(=O)[C@H](Cc1ccccc1)NC(=O)[C@H](CC(C)C)NC(=O)c1ccc2ccccc2c1 | > 320 µM |
| CCOC(=O)/C=C/[C@H](CCC(N)=O)NC(=O)[C@H](Cc1ccccc1)NC(=O)[C@H](Cc1ccccc1)NC(=O)OCc1ccccc1 | > 320 µM |
| CCOC(=O)/C=C/[C@H](CCC(N)=O)NC(=O)[C@H](Cc1ccccc1)NC(=O)[C@H](CSc1ccccc1)NC(=O)OCc1ccccc1 | > 320 µM |
| CCOC(=O)/C=C/[C@H](CCC(N)=O)NC(=O)[C@H](Cc1ccc(COC)cc1)NC(=O)[C@H](CC(C)C)NC(=O)OCc1ccccc1 | > 320 µM |
| CCOC(=O)/C=C/[C@H](CCC(N)=O)NC(=O)[C@H](Cc1ncc[nH]1)NC(=O)[C@H](CC(C)C)NC(=O)OCc1ccccc1 | > 320 µM |
| CCOC(=O)/C=C/[C@H](CCC(N)=O)NC(=O)[C@H](Cc1ccccc1)NC(=O)[C@H](CC(C)C)NC(=O)OCc1ccccc1C | > 100 µM |
| CCOC(=O)/C=C/[C@H](CCC(=O)NC)NC(=O)[C@H](Cc1ccccc1)NC(=O)[C@H](CC(C)C)NC(=O)OCc1ccccc1 | > 100 µM |
| CCOC(=O)/C=C/[C@H](CCC(N)=O)NC(=O)[C@H](Cc1ccccc1)NC(=O)[C@H](CCCN1CCOCC1)NC(=O)OCc1ccccc1 | > 100 µM |
| CCOC(=O)/C=C/[C@H](CCC(N)=O)NC(=O)[C@H](Cc1ccccc1)NC(=O)[C@H](CC(C)C)NC(C)=O | > 320 µM |
| CCOC(=O)/C=C/[C@H](CCC(N)=O)NC(=O)[C@H](Cc1ccccc1)NC(=O)[C@@H](NC(=O)OCc1ccccc1)[C@H](C)O | > 320 µM |
| CCOC(=O)/C=C/[C@H](CCC(N)=O)NC(=O)OCc1ccccc1 | > 100 µM |
